Columns and labels:
C57BL/6J mice [1] = assay: Discrete-trials temporal discrimination task; type: in vivo, mouse
C57BL/6J mice [2] = assay: Head twitch response; type: in vivo, mouse
human 5-HT2C receptor = target: T1, human 5-HT2C receptor (Homo sapiens, UniProt P28335); assay: NIMH PDSP competitive radioligand binding, [3H]mesulergine
T1 sequence (P28335 33-458): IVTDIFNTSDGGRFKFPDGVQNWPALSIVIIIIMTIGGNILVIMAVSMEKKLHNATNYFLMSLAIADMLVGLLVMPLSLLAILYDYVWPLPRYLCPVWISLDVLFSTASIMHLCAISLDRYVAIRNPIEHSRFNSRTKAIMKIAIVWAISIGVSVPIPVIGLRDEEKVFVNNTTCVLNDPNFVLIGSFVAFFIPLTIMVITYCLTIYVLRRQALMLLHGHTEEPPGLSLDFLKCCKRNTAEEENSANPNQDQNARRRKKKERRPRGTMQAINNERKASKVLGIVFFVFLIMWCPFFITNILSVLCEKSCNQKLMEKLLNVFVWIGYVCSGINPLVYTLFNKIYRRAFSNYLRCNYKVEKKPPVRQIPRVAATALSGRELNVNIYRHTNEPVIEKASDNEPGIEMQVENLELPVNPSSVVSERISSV

α2C = target: T2, α2C (Homo sapiens, UniProt P18825); assay: NIMH PDSP binding screen
T2 sequence (P18825 1-462): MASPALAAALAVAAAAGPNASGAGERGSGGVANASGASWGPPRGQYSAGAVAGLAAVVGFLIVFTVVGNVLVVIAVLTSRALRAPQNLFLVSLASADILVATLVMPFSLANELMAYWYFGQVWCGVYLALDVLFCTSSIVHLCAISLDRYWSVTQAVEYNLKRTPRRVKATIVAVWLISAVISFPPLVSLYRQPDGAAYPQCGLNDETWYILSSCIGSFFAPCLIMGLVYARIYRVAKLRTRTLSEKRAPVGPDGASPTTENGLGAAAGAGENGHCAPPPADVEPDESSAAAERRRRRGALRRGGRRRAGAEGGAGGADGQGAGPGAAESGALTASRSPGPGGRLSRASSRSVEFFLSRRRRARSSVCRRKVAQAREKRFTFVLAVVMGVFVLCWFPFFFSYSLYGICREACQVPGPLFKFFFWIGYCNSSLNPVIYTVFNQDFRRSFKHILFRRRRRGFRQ

5-HT6 = 5-HT6 (Homo sapiens, UniProt P50406); assay: NIMH PDSP binding screen
5-HT6, sequence (P50406 whole entry, species assumed): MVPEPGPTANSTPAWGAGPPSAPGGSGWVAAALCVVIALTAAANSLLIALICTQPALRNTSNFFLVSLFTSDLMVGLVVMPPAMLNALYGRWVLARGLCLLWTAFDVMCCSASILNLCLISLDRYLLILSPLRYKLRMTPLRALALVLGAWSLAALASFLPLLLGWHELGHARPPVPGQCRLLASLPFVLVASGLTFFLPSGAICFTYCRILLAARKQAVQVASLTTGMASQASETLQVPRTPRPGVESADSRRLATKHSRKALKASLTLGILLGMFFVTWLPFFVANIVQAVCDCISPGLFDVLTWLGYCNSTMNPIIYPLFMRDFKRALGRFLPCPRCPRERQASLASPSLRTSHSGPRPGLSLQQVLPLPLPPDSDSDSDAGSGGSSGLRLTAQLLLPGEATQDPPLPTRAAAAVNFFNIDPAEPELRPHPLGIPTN

sigma-2 = target: T3, sigma-2 (Rattus norvegicus, UniProt Q5U3Y7); assay: NIMH PDSP binding screen
T3 sequence (Q5U3Y7 1-176): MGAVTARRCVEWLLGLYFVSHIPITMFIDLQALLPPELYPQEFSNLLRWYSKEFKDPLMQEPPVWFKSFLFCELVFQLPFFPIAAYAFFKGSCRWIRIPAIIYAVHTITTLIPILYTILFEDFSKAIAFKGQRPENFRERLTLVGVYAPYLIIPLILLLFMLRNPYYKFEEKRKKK

α2A = target: T4, α2A (Homo sapiens, UniProt P08913); assay: NIMH PDSP binding screen
T4 sequence (P08913 1-465): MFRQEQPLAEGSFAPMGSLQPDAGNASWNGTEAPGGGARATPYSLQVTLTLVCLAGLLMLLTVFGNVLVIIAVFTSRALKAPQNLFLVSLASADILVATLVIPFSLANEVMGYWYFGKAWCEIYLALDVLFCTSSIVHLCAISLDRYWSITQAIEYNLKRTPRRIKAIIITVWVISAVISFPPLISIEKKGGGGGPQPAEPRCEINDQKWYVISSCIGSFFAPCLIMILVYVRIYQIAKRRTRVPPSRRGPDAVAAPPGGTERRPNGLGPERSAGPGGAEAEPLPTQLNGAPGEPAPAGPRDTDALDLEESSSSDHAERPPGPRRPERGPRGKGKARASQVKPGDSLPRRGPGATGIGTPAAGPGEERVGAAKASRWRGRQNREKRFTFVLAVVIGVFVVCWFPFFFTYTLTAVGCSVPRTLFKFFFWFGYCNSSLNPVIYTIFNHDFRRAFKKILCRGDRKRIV

α2B = target: T5, α2B (Homo sapiens, UniProt P18089); assay: NIMH PDSP binding screen
T5 sequence (P18089 1-450): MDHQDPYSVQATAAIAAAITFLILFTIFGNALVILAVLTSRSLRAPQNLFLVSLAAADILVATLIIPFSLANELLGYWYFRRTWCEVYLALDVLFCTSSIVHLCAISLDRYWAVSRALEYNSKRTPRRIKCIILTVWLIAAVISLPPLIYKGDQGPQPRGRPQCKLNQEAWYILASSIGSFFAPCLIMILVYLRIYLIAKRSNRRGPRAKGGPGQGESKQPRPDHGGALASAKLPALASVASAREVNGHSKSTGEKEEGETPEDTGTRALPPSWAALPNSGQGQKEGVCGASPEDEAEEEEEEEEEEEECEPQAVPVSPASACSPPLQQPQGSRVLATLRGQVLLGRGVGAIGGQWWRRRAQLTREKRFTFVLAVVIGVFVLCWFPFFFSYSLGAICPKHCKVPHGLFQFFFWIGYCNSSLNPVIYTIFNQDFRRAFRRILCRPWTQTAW

histaminergic H2 = histaminergic H2 (Homo sapiens, UniProt P25021); assay: NIMH PDSP binding screen
histaminergic H2, sequence (P25021 whole entry): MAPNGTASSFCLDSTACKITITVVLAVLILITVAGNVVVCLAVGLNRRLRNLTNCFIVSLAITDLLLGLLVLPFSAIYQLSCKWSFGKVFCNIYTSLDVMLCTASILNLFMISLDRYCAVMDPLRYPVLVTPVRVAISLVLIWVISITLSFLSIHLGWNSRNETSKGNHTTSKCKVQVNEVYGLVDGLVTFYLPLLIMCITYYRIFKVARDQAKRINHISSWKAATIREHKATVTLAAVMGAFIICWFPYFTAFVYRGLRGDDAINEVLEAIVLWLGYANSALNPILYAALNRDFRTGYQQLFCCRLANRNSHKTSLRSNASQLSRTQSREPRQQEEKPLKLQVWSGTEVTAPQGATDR

β2 = β2 (Homo sapiens, UniProt P07550); assay: NIMH PDSP binding screen
β2, sequence (P07550 whole entry): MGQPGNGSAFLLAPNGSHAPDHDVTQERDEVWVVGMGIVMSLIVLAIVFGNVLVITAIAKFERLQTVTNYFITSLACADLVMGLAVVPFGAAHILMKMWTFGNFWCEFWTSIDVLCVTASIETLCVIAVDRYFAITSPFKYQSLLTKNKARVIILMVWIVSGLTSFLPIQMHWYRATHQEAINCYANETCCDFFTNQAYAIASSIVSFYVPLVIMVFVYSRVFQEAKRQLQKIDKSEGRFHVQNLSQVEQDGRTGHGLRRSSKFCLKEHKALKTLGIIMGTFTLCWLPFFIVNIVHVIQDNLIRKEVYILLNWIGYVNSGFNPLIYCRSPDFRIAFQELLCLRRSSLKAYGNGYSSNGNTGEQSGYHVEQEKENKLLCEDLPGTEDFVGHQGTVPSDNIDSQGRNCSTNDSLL

NIH Swiss mice = conditions: mediated by the 5-HT2A receptor, ref Fantegrossi et al., 2014; cited from earlier work
5-HT2C receptors = conditions: ref Kennett et al., 1997; cited from earlier work
5-HT2C = conditions: in mice; ref Canal et al., 2013; cited from earlier work
[3] = 25CN-NBOH 1 mg/kg SC, 5 min before session
[4] = 25CN-NBOH 6 mg/kg SC, 5 min before session
[5] = SB-242,084 0.1 mg/kg SC, 10 min before session
[6] = SB-242,084 0.3 mg/kg SC, 10 min before session
[7] = SB-242,084 1 mg/kg SC, 10 min before session

## COc1cc(CCNCc2ccccc2O)c(OC)cc1C#N.Cl [25CN-NBOH, N-(2-hydroxybenzyl)-2,5-dimethoxy-4-cyanophenethylamine hydrochloride]
C57BL/6J mice [1]; [3]
  Difference limen: 1.09 ± 0.11 s
  Slope (ε): 1.098±0.125
  T50: 6.33 ± 0.20 s
  Trials completed: 182.4±3.7
C57BL/6J mice [1]; 25CN-NBOH 1 mg/kg SC, 5 min before session, mean±SEM
  Weber fraction: 0.175±0.020
C57BL/6J mice [1]; 25CN-NBOH 6 mg/kg SC
  %B responding (proportional choice of lever B): reduced %B responding at long stimulus intervals
C57BL/6J mice [1]; [4]
  Difference limen: 1.65 ± 0.12 s
  T50: 7.63 ± 0.24 s
  Trials completed: 134.5±8.4
  Weber fraction: 0.217±0.015
C57BL/6J mice [1]; 25CN-NBOH 0.3–3 mg/kg SC
  %B responding (proportional choice of lever B): did not significantly alter %B responding
C57BL/6J mice [1]; after drug treatment that reduced %B responding at long stimulus intervals
  Correct responding during the 10.5 s-trials: more than 80%
C57BL/6J mice [2]; Mus musculus, sc, 0.5 h, read-out: HTR ED50
  ED50: 0.36 mg/kg
C57BL/6J mice [2]; SC, 30-min session
  Dose producing the maximal HTR response: 3 mg/kg
Human 5-HT2C receptor
  Ki: 49.8 ± 7.4 nM
α2C
  Ki: 543 nM
5-HT6
  Ki: 573 nM
sigma-2
  Ki: 575 nM
α2A
  Ki: 803 nM
α2B
  Ki: 1230 nM
Histaminergic H2
  Ki: 1510 nM
β2
  Ki: 1610 nM
NIH Swiss mice
  Head twitch response (HTR): induce the head twitch response

## 6-chloro-2,3-dihydro-5-methyl-N-[6-[(2-methyl-3-pyridinyl)oxy]-3-pyridinyl]-1H-indole-1-carboxyamide dihydrochloride [SB-242,084]
C57BL/6J mice [1]; SB-242,084 0.1 mg/kg SC pretreatment, DOI 3 mg/kg IP
  Effect of pretreatment on the response to DOI (%B responding): did not block the ability of DOI to alter %B responding
C57BL/6J mice [1]; [5]
  Difference limen: 0.98 ± 0.10 s
  Slope (ε): 1.202±0.110
  T50: 6.28 ± 0.14 s
  Trials completed: 191.4±1.6
C57BL/6J mice [1]; SB-242,084 0.1 mg/kg SC, 10 min before session, mean±SEM
  Weber fraction: 0.156±0.016
C57BL/6J mice [1]; [6]
  Difference limen: 1.05 ± 0.08 s
  Slope (ε): 1.094±0.084
  T50: 6.02 ± 0.14 s
  Trials completed: 189.9±2.5
  Weber fraction: 0.173±0.015
C57BL/6J mice [1]; [7]
  Difference limen: 1.07 ± 0.09 s
  Slope (ε): 1.105±0.108
  T50: 5.66 ± 0.17 s
  Trials completed: 188.0±2.8
  Weber fraction: 0.191±0.018
5-HT2C receptors
  Selectivity for 5-HT2C receptors compared with 5-HT2A and 5-HT2B receptors: over 100 fold
5-HT2C
  Selectivity for 5-HT2C over 5-HT2A: 960 fold

— publication PMC5403251 (Neuropharmacology, 2016)
